Results on eleven molecules are retold here after ChEMBL document CHEMBL3862008, “7-Chloro-4-aminoquinoline γ-hydroxy-γ-lactam derived-tetramates as a new family of antimalarial compounds” (Bioorg Med Chem Lett, 2016).

The term IC50 denotes the concentration at which inhibition is half-maximal. A high value points to lower potency.

SMILES strings stand for the structures.

Data set [1] can be described thus: Resistance index, ratio of IC50 for chloroquine-resistant Plasmodium falciparum W2 infected in red blood cells to IC50 for chloroquine-sensitive Plasmodium falciparum 3D7 infected in red blood cells. Format: functional.
Data set [2] in a line: Stability of the compound in pH 7.4 solution up to 48 hrs. Format: physicochemical. Conditions: buffer, pH 7.4, 48 h.
The nature of data set [3]: Cytotoxicity against HUVEC assessed as decrease in cell viability at 0.01 to 50 umol/l after 24 hrs by trypan blue dye based assay. Format: toxicity. The note with it: human.
For data set [4], the system named is Plasmodium falciparum. Put plainly: Antimalarial activity against chloroquine-resistant Plasmodium falciparum W2 infected in red blood cells after 72 hrs by SYBR green 1 staining based fluorometric assay. Format: functional, cell-based. Conditions: W2, 72 h.
The subject of data set [5] is Plasmodium falciparum. The data set is described as follows: Antimalarial activity against chloroquine-sensitive Plasmodium falciparum 3D7 infected in red blood cells after 72 hrs by SYBR green 1 staining based fluorometric assay. Format: functional, cell-based. The note with it: 3D7, 72 h.

Consider `O=C1C=C(OCc2ccccc2)C(O)(Cc2ccc(C(F)(F)F)cc2)N1CCCNc1ccnc2cc(Cl)ccc12` (stereo not given), for which the “Ratio IC50” value in data set [1] is 1. In addition, the Stability result in data set [2] was “Stable”. The Activity result in data set [3] is given as “Non-Toxic”. Further, the IC50 in data set [4] and in data set [5] was 36 nM throughout.
For the molecule `COC1=CC(=O)N(CCCNc2ccnc3cc(Cl)ccc23)C1(O)Cc1ccc(C(C)(C)C)cc1` (stereo not given), the “Ratio IC50” value in data set [1] amounted to 2.3. For the same molecule, the IC50 in data set [4] stood at 214 nM; in data set [5], 91 nM.
On the same counts, the results for `COC1=CC(=O)N(CCCNc2ccnc3cc(Cl)ccc23)C1(O)Cc1ccc(OC)c(OC)c1` (stereo not given) are 1.5, 760 nM and 511 nM.
For `COC1=CC(=O)N(CCN2CCN(CCNc3ccnc4cc(Cl)ccc34)CC2)C1(O)Cc1ccc(C(F)(F)F)cc1` (stereo not given), in data set [1], the “Ratio IC50” value was 0.8. The Stability result in data set [2] is reported as “Stable”. Moreover, the Activity entry in data set [3] is recorded as “Non-Toxic”. The IC50 in data set [4] was 16 nM; in data set [5] it was 19 nM.
Consider `CN(CCNc1ccnc2cc(Cl)ccc12)CCN1C(=O)C=C(OCc2ccccc2)C1(O)Cc1ccc(C(F)(F)F)cc1` (stereo not given), for which the “Ratio IC50” value in data set [1] is 1. Moreover, the Stability entry in data set [2] is on record as “Stable”. Besides, the Activity result in data set [3] is “Non-Toxic”. Besides, the IC50 in data set [4] is 42 nM; in data set [5] it was 40 nM.
In the case of `O=C1C=C(OCc2ccccc2)C(O)(Cc2ccc(F)cc2)N1CCCNc1ccnc2cc(Cl)ccc12` (stereo not given), the “Ratio IC50” value in data set [1] is given as 1.4. The Stability entry in data set [2] is reported as “Stable”. In addition, the Activity entry in data set [3] is listed as “Non-Toxic”. Moreover, the IC50 in data set [4] is 58 nM; in data set [5] it was 42 nM.
Take `O=C1C=C(OCc2ccccc2)C(O)(Cc2ccccc2)N1CCCNc1ccnc2cc(Cl)ccc12` (stereo not given): in data set [1], the “Ratio IC50” value worked out at 1.3. Besides, the values for the IC50 in data set [4] and in data set [5] were 191 nM and 143 nM, respectively.
Regarding `COC1=CC(=O)N(CCCNc2ccnc3cc(Cl)ccc23)C1(O)Cc1ccccc1` (stereo not given), the “Ratio IC50” value in data set [1] is listed as 2.8. Besides, the half-inhibitory concentration (IC50) in data set [4] came out at 827 nM; in data set [5], 300 nM.
Consider `COC1=CC(=O)N(CCN(C)CCNc2ccnc3cc(Cl)ccc23)C1(O)Cc1ccc(C(F)(F)F)cc1` (stereo not given), for which, in data set [1], the “Ratio IC50” value was found to be 2.4. Moreover, the Stability entry in data set [2] was “Stable”. Moreover, the Activity result in data set [3] was “Non-Toxic”. Further, the results for the IC50 in data set [4] and in data set [5] were 34 nM and 14 nM, respectively.
In the same order, the values of `CN(CCNc1ccnc2cc(Cl)ccc12)CCN1C(=O)C=C(OCc2ccccc2)C1(O)Cc1ccccc1` (stereo not given) are 1.2, “Stable”, “Non-Toxic”, 64 nM and 54 nM.
For the molecule `COC1=CC(=O)N(CCCNc2ccnc3cc(Cl)ccc23)C1(O)Cc1ccc(F)cc1` (stereo not given), the “Ratio IC50” value in data set [1] was found to be 3.5. For the same molecule, the results for the IC50 in data set [4] and in data set [5] were 670 nM and 191 nM, respectively.
